Experiment: osmotic coefficient (dimensionless); mn = molality of the nth substance listed, in mol/kg
Details: 101 kPa, Liquid, Vapor pressure osmometry

CCCCn1cc[n+](C)c1.COS(=O)(=O)[O-] [1-butyl-3-methylimidazolium methyl sulfate] + O
osmotic coefficient
Details | 298.15 K | 308.15 K | 318.15 K | 328.15 K
m1 = 0.0132 | 0.923 | 0.937 | 0.968 | 0.987
m1 = 0.0225 | 0.895 | 0.921 | 0.958 | 0.977
m1 = 0.0328 | 0.884 | 0.897 | 0.94 | 0.966
m1 = 0.0434 | 0.863 | 0.885 | 0.896 | 0.959
m1 = 0.0634 | 0.837 | 0.872 | 0.882 | 0.896
m1 = 0.078 | 0.821 | 0.836 | 0.877 | 0.887
m1 = 0.1205 | 0.809 | 0.813 | 0.839 | 0.874
m1 = 0.157 | 0.791 | 0.809 | 0.839 | 0.858
m1 = 0.1944 | 0.78 | 0.802 | 0.814 | 0.857
m1 = 0.2801 | 0.767 | 0.779 | 0.802 | 0.84
m1 = 0.3552 | 0.741 | 0.758 | 0.775 | 0.81
m1 = 0.4687 | 0.721 | 0.749 | 0.762 | 0.8
m1 = 0.7057 | 0.71 | 0.74 | 0.756 | 0.786
m1 = 0.9552 | 0.698 | 0.716 | 0.732 | 0.76
m1 = 1.44 | 0.692 | 0.708 | 0.73 | 0.752
m1 = 2.177 | 0.693 | 0.7 | 0.726 | 0.743

CCCCn1cc[n+](C)c1.F[B-](F)(F)F [1-butyl-3-methylimidazolium tetrafluoroborate] + O
osmotic coefficient
Details | 298.15 K | 308.15 K | 318.15 K | 328.15 K
m1 = 0.012 | 1.023 | 1.009 | 1.006 | 0.994
m1 = 0.0223 | 0.994 | 0.974 | 0.986 | 0.978
m1 = 0.0369 | 0.987 | 0.959 | 0.955 | 0.965
m1 = 0.045 | 0.956 | 0.956 | 0.96 | 0.959
m1 = 0.0652 | 0.952 | 0.926 | 0.937 | 0.92
m1 = 0.0855 | 0.862 | 0.879 | 0.892 | 0.9
m1 = 0.1058 | 0.854 | 0.872 | 0.887 | 0.883
m1 = 0.1629 | 0.825 | 0.823 | 0.826 | 0.839
m1 = 0.2108 | 0.804 | 0.787 | 0.802 | 0.797
m1 = 0.2695 | 0.749 | 0.766 | 0.766 | 0.772
m1 = 0.3284 | 0.699 | 0.708 | 0.748 | 0.761
m1 = 0.4307 | 0.677 | 0.685 | 0.693 | 0.726
m1 = 0.533 | 0.648 | 0.666 | 0.673 | 0.685
m1 = 0.6375 | 0.619 | 0.622 | 0.634 | 0.647
m1 = 0.7233 | 0.575 | 0.587 | 0.61 | 0.632
m1 = 0.9322 | 0.523 | 0.545 | 0.564 | 0.589
m1 = 1.292 | 0.462 | 0.495 | 0.508 | 0.517
m1 = 2.066 | 0.392 | 0.396 | 0.412 | 0.415

CCOS(=O)(=O)[O-].CCn1cc[n+](C)c1 [1-ethyl-3-methylimidazolium ethyl sulfate] + O
osmotic coefficient
Details | 298.15 K | 308.15 K | 318.15 K | 328.15 K
m1 = 0.0086 | 0.973 | 0.981 | 1.019 | 1.018
m1 = 0.0185 | 0.957 | 0.943 | 0.972 | 0.975
m1 = 0.0284 | 0.937 | 0.921 | 0.934 | 0.955
m1 = 0.0376 | 0.921 | 0.917 | 0.93 | 0.936
m1 = 0.057 | 0.871 | 0.862 | 0.868 | 0.886
m1 = 0.0749 | 0.852 | 0.862 | 0.859 | 0.858
m1 = 0.0938 | 0.83 | 0.838 | 0.845 | 0.85
m1 = 0.1269 | 0.815 | 0.817 | 0.831 | 0.842
m1 = 0.1704 | 0.782 | 0.797 | 0.813 | 0.815
m1 = 0.2087 | 0.774 | 0.779 | 0.797 | 0.815
m1 = 0.2648 | 0.754 | 0.764 | 0.797 | 0.8
m1 = 0.3276 | 0.751 | 0.766 | 0.793 | 0.796
m1 = 0.4235 | 0.736 | 0.755 | 0.776 | 0.787
m1 = 0.5106 | 0.724 | 0.745 | 0.772 | 0.781
m1 = 0.6979 | 0.712 | 0.727 | 0.742 | 0.755
m1 = 0.8919 | 0.706 | 0.721 | 0.73 | 0.747
m1 = 1.12 | 0.697 | 0.711 | 0.717 | 0.729
m1 = 1.606 | 0.696 | 0.707 | 0.715 | 0.719
m1 = 1.889 | 0.694 | 0.707 | 0.717 | 0.726
m1 = 2.763 | 0.733 | 0.747 | 0.759 | 0.766

— the NIST ThermoML archive (doi:10.1016/j.fluid.2009.02.007)
